Patent publication US20200277246A1, “TREATMENT METHOD, COMPOUNDS, AND METHOD OF INCREASING TRPV2 ACTIVITY” (THE FEINSTEIN INSTITUTE FOR MEDICAL RESEARCH, priority 2015, published 2020)
Several values for one entry are separate records, joined by “and”; a condition that tells them apart may be missing. Equal values may be shown once.

Key:
FLS from RA patients = assay: Matrigel transwell invasion assay, RA FLS; assay type: cell-based, human
Excerpt: Human synovial tissues were obtained from RA patients undergoing elective orthopedic surgery. All patients met the American College of Rheumatology criteria for RA (Arnett et al, “The American Rheumatism Association 1987 Revised Criteria for the Classification of Rheumatoid Arthritis,” Arthritis Rheum. 31 (3):315-324 (1988), which is hereby incorporated by reference in its entirety). Informed consent was obtained from all participating subjects under an Institutional Review Board-approved protocol through the Feinstein Institute's Tissue Donation Program.
The in vitro invasiveness of FLS was assayed in a transwell system using Matrigel-coated inserts (BD Biosciences, Franklin Lakes, N.J.), as previously described (Tolboom et al., “Invasiveness of Fibroblast-Like Synoviocytes is an Individual Patient Characteristic Associated with the Rate of Joint Destruction in Patients with Rheumatoid Arthritis,” Arthritis Rheum. 52 (7):1999-2002 (2005); Laragione et al., “The Arthritis Severity Locus Cia5d is a Novel Genetic Regulator of the Invasive Properties of Synovial Fibroblasts,” Arthritis Rheum. 58 (8):2296-2306 (2008), which are hereby incorporated by reference in their entirety). […] The opposite side of the insert was stained with Crystal Violet (Sigma) and the total number of cells that invaded through Matrigel counted at 100× magnification. […]

MMP-2 = assay: IL-1β-induced MMP-2 expression (qPCR) in RA FLS; assay type: cell-based, human; conditions: IL-1β 10 ng/ml 48 hours, 10 μM, n=6 RA
Method: (§1) The qPCR conditions used have been previously described (Laragione et al., “Cia5d Regulates a New Fibroblast-Like Synoviocyte Invasion-Associated Gene Expression Signature,” Arthritis Res. Ther. 10 (4):R92 (2008), which is hereby incorporated by reference in its entirety). Briefly, total RNA (200 ng) from each sample was reverse transcribed using Superscript III (Invitrogen). MMP-2 (forward-[…] (SEQ ID NO: 1); reverse-GGTATCCATCGCCATGCT (SEQ ID NO: 2) and MMP-3 (forward-CCAGGTGTGGAGTTCCTGA (SEQ ID NO: 3); reverse-[…] (SEQ ID NO: 4)) primers were designed based on the Universal ProbeLibrary (Roche, Indianapolis, Ind.). Reactions were prepared with Absolute Blue qPCR Mix (Thermo Fisher, Waltham, Mass.), and run in duplicate on a LightCycler 480 thermocycler (Roche) using Relative Quantitative Software (Roche). Ct (threshold cycle) values were adjusted for GAPDH in each sample (ΔCt). Fold differences were calculated with the 2^−ΔΔCt method (Livak et al., “Analysis of Relative Gene Expression Data Using Real-Time Quantitative PCR and the 2(-Delta Delta C(T)) Method,” Methods 25 (4):402-408 (2001), which is hereby incorporated by reference in its entirety).

MMP-3 = assay: IL-1β-induced MMP-3 expression (qPCR) in RA FLS; assay type: cell-based, human; conditions: IL-1β 10 ng/ml 48 hours, 10 μM, n=6 RA
Method: as §1

FLS = assay: MTT assay; assay type: cell-based; conditions: 24 hours, concentrations of the invasion studies
Method: 4×10^4 FLS per well were plated in triplicate in 96-well plates in 100 μl of complete media. Cells were allowed to adhere for 24 hours. Media was then changed and O1821, LER13, or vehicle was added at the same concentrations used for the invasion studies. After 24 hours (same duration of the invasion experiments) viable cells were determined by the colorimetric MTT kit (Millipore) according to the manufacturer's instructions.

[1] = tested on: FLS actin cytoskeleton, lamellipodia and Trpv2 distribution; assay: Immunofluorescence and confocal microscopy of FLS; assay type: cell-based
Method: Immunofluorescence was performed as previously reported (Laragione et al., “mTOR Regulates the Invasive Properties of Synovial Fibroblasts in Rheumatoid Arthritis,” Mol. Med. 16 (9-10):352-358 (2010); Chan et al., “The GTPase Rac Regulates the Proliferation and Invasion of Fibroblast-Like Synoviocytes from Rheumatoid Arthritis Patients,” Mol. Med. 13 (5-6):297-304 (2007), which are hereby incorporated by reference in their entirety). Briefly, FLS were cultured on coverslips to 10-20% confluence, starved overnight and then pre-treated for 30 minutes, 60 minutes or 24 h with either DMSO or O1821, in the presence or absence of IL-1β 10-25 ng/ml or PDGF 50 ng/ml in complete media or in serum-free media. Cells were then fixed with 4% formaldehyde for 15 minutes at room temperature and permeabilized with PBS/Triton X-100 0.1% for 5 minutes. Non-specific binding was blocked with 5% nonfat milk. A rabbit anti-Trpv2 (Santa Cruz Biotechnology) was used as primary antibody, and a Alexa Fluor 488 (green) donkey anti-rabbit IgG (Invitrogen) used as secondary antibody. Alexa Fluor 594 (red) Phalloidin (Invitrogen) was used to stain the actin filament. The stained cells were mounted on a glass slide. A Zeiss Axiovert 200 M fluorescent microscope was used for visualization with the appropriate filters, with Zeiss Axioversion 4.7 software. Immunofluorescence microscopy was used for cell cytoskeleton scoring as previously described (Laragione et al., “CXCL10 and its Receptor CXCR3 Regulate Synovial Fibroblast Invasion in Rheumatoid Arthritis,” Arthritis Rheum. 63 (11):3274-3283 (2011), which is hereby incorporated by reference in its entirety). An Olympus FluoView 300 was used for confocal microscopy with a 600× magnification.

phosphorylated Erk1/2 = assay: FLS levels of phosphorylated Erk1/2; assay type: cell-based
Trpv1 = Trpv1 (Homo sapiens, UniProt Q8NER1); conditions: cited from earlier work
Sequence of Trpv1 (Q8NER1 whole entry, species assumed): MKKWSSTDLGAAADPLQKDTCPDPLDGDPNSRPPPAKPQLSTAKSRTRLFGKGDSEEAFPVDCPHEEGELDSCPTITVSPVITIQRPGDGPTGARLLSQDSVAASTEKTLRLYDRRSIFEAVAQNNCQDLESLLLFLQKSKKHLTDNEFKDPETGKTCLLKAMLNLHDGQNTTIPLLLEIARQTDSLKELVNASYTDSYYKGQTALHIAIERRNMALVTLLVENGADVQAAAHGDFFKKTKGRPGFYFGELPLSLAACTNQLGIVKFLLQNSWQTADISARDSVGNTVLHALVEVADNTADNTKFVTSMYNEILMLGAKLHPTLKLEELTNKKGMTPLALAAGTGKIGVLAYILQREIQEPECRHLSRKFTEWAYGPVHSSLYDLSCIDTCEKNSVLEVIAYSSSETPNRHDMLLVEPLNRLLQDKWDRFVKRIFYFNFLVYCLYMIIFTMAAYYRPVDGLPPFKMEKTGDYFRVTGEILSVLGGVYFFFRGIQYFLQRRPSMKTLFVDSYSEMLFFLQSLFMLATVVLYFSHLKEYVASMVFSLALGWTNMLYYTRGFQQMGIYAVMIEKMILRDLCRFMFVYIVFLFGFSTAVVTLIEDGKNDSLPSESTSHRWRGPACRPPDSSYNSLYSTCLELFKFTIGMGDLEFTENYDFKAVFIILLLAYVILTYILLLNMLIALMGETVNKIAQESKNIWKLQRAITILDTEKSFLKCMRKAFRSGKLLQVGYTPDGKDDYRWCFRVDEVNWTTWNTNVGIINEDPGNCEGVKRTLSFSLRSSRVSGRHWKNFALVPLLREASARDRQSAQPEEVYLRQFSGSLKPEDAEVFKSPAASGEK

C=C(C)[C@@H]1CCC(C)=C[C@H]1c1c(O)cc(C)cc1O [Compound O1821]
Reduction of RA FLS invasion (FLS from RA patients; 20 μM): 90%
Reduction of RA FLS invasion (FLS from RA patients; 50 μM): 99.4%
Decrease of IL-1β-induced MMP-2 expression (MMP-2): 45.6% and 50%
Decrease of IL-1β-induced MMP-3 expression (MMP-3): 92% and 90%
Toxicity to FLS (cell mortality) (FLS): not toxic
Distribution of Trpv2 in FLS ([1]; 10 μM): did not significantly change
Actin cytoskeleton rearrangements, lamellipodia, cell morphology ([1]; 10 μM, 30 minutes to 24 hours, PDGF or IL-1β): no significant effect
Actin cytoskeleton organization, number and distribution of lamellipodia ([1]; RA FLS, 1 μM, 30 minutes): did not affect
Levels of phosphorylated Erk1/2 (phosphorylated Erk1/2): did not affect
Stimulation of Trpv1 (Trpv1): does not stimulate
